The record followed here is ChEMBL document CHEMBL4014322, “Atropisomerism and Conformational Equilibria: Impact on PI3Kδ Inhibition of 2-((6-Amino-9H-purin-9-yl)methyl)-5-methyl-3-(o-tolyl)quinazolin-4(3H)-one (IC87114) and Its Conformationally Restricted Analogs” (J Med Chem, 2017).

Experiment [1] concerns the target PI3-kinase p110-delta/p85-alpha (Homo sapiens, UniProt O00329). The experiment in a line: Inhibition of human recombinant full length N-terminal His6-tagged PI3K p110delta/p85alpha expressed in baculovirus infected Sf9 insect cells using PI:PS as substrate after 60 mins by ADP-Glo assay. Background: ADP-Glo first removes unused ATP, then detects ADP through luciferase.

For experiment [2], the target named is T1, Phosphatidylinositol 4,5-bisphosphate 3-kinase catalytic subunit delta isoform (Homo sapiens, UniProt O00329).
T1 sequence (O00329 whole entry): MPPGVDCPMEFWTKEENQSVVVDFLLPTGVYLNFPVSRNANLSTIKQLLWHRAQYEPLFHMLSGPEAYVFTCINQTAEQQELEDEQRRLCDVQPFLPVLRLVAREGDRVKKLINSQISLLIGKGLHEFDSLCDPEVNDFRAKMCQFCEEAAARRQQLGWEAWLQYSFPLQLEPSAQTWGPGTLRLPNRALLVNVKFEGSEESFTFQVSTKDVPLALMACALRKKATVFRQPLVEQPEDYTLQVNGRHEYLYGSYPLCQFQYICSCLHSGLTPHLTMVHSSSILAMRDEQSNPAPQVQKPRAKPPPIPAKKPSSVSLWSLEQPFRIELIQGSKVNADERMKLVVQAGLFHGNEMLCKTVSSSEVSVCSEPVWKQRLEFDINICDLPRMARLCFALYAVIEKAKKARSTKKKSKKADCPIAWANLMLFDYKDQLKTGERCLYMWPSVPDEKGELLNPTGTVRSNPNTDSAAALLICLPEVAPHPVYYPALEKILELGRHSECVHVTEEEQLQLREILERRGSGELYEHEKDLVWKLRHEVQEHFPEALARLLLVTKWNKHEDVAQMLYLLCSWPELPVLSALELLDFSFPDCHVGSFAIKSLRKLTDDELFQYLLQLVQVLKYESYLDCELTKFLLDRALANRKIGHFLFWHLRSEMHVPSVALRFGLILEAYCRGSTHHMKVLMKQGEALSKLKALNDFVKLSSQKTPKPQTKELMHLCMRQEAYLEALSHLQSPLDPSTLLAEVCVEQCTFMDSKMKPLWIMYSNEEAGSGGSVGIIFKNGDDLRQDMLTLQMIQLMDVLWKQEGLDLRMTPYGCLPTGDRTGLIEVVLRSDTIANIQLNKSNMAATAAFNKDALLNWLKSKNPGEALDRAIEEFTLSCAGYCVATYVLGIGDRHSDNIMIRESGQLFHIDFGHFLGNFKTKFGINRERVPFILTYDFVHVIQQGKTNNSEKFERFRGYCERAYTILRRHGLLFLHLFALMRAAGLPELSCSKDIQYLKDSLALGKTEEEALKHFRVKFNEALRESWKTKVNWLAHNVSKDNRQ
Description: Inhibition of PI3Kdelta in human PBMC assessed as reduction in anti-human CD28 antibody stimulated IL-6 secretion levels after 72 hrs by ELISA

Sequence of PI3-kinase p110-delta/p85-alpha (P27986 whole entry, one chain of several): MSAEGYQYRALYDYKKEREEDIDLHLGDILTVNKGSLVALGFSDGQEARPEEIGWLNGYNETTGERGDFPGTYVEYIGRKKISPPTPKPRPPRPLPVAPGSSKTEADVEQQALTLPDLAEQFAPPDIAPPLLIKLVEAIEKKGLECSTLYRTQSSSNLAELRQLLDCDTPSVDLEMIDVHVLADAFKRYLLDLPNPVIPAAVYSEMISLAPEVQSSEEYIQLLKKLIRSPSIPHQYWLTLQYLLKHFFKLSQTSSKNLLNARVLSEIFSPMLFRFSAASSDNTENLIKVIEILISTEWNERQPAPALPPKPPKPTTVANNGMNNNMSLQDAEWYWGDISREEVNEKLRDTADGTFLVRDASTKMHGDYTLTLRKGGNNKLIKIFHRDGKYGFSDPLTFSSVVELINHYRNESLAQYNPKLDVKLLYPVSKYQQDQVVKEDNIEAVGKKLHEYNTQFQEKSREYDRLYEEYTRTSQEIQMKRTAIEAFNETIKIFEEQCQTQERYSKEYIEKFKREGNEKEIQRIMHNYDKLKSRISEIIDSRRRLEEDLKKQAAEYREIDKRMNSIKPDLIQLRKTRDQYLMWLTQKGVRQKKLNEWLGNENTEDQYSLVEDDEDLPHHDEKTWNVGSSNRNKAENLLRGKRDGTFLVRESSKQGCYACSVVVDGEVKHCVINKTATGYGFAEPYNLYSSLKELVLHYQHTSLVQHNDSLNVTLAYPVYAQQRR

The term Ki denotes the equilibrium dissociation constant of an inhibitor or competing ligand from its target. `Cc1ccccc1-n1c([C@@H](C)n2cnc3c(N)ncnc32)nc2cccc(C)c2c1=O` (stereo in doubt; form 2): the Ki in experiment [1] is 12.6 nM. For `Cc1ccccc1-n1c([C@@H](C)n2cnc3c(N)ncnc32)nc2cccc(C)c2c1=O` (stereo in doubt; form 1), the Ki in experiment [1] was 126 nM. One may read the IC50 as the concentration that inhibits the measured activity by half. Lower therefore signals greater potency. `Cc1ccccc1-n1c([C@H](C)n2cnc3c(N)ncnc32)nc2cccc(C)c2c1=O` (stereo in doubt; form 1) showed an IC50 in experiment [2] of 6.31 nM. In addition, the inhibition constant Ki in experiment [1] is 3.16 nM.

`Cc1cccc2nc(Cn3cnc4c(N)ncnc43)n(-c3ccccc3)c(=O)c12` gave an IC50 in experiment [2] of 50.1 nM. Moreover, the Ki in experiment [1] is 25.1 nM. For `Cc1ccccc1-n1c([C@H](C)n2cnc3c(N)ncnc32)nc2cccc(C)c2c1=O` (stereo in doubt; form 2), in experiment [2], the midpoint of inhibition, the IC50, lay at 1.26 nM. Moreover, the Ki in experiment [1] was 1.58 nM.
